# Assays:
# [1] = system: full thickness cutaneous excisional wounds (punch biopsies); assay: Human 3 mm punch biopsy wounds: re-epithelialisation; type: in vivo, humans; conditions: single 100 μl intradermal dose 10-30 minutes before wounding, day 3, 44 wounds
# Method: Medicaments of the invention were prepared using the constituents described above. […] 44 healthy subjects were recruited to the study, of whom, 40 were healthy males (aged 18-75 years) and 4 were post-menopausal females (aged 53-69 years). The average age of subjects recruited to this study was 42 years. The post-menopausal status of female subjects was confirmed by quantification of serum levels of oestradiol and follicle stimulating hormone (FSH). Serum levels of oestradiol were required to be […], and follicle stimulating hormone levels >31 IU/L. Each subject had four wounds treated with active drug, one corresponding to each of four concentrations of the medicaments produced. The test medicaments were each administered intradermally as a single dose at a volume of 100 μl (sufficient to treat 1 cm^2 of skin) per wound site (the upper, inner aspect of each arm), 10-30 minutes before wounding. Subjects received 3 mm punch biopsies at the sites where the medicaments had been administered. After wounding, all sites received moist wound healing dressings (Standard Care). Biopsy sites were excised, using a 5 mm punch biopsy, three days after wounding. […] Percentage re-epithelialisation for the new epithelium was calculated as a proportion of the total wound diameter. The average percentage re-epithelialisation value was calculated from the 44 wounds of each treatment group.
# [2] = system: full thickness excisional wounds (punch biopsies); assay: Rat full thickness excisional wound model (study 3): re-epithelialisation at test concentrations, injection 20 minutes before wounding; type: in vivo, adult male Sprague-Dawley rats; conditions: intradermal 20 minutes before wounding, day 3, five rats
# Description: Animals were killed, and their wounds harvested, three days after wounding. The wounds were excised and treated for histology. […] All histological assessments of early wound healing events were made using preserved 5 micron-thickness wound sections taken from the widest part of each excised biopsy site. Sections were stained with Haematoxylin and Eosin to aid visualisation of structural features, and measurements made using image analysis software. The distance traveled by the epithelium is derived from two histological measurements: the freehand total wound diameter and the freehand non-epithelialised wound diameter. The non-epithelialised diameter is subtracted from the total wound diameter, to determine the distance which the new epithelium has covered since the time of wounding. Percentage re-epithelialisation for the new epithelium was calculated as a proportion of the total wound diameter. The average percentage re-epithelialisation value was calculated from the wounds of the […] within each treatment group. […] 100 μl of the medicament to be tested was administered by intradermal injection at sites on the dorsal surface of experimental rats, 20 minutes prior to formation of a full thickness punch biopsy at the injected site. One injection and excisional wound was made per animal, and five adult male Sprague-Dawley rats used per treatment group. Acceleration of wound healing achieved using the test concentrations of the medicaments of the invention was investigated using the protocols set out under 1.1.4 above.
# partial thickness wounds = assay: Pig partial thickness wound healing model (model of split thickness skin graft donor sites); type: in vivo, male Large White pigs; conditions: 100 μl per cm^2 intradermal, five days after wounding, four pigs
# Method: Test medicaments were administered by intradermal injection to provide 100 μl of medicament per cm^2 to sites on experimental pigs where wounds were to be formed. Thus a total volume of 625 μl of the test medicament was administered per wound site. After administration of the medicaments 2.5 cm by 2.5 cm (6.25 cm^2) partial thickness wounds were made using a 25 mm dermatome (Nouvag) at a depth setting of 0.55 mm. A single wound was treated per animal, and each treatment group comprised four male Large White pigs. Animals were killed, and their wounds harvested, five days after wounding. The wounds were excised and treated for histology. […] After being allowed fixed for 48 hours wounded tissue was bisected into four even sections. All bisected sections were processed to wax and embedded into individual wax blocks. Tissue was sectioned through to the end of the block where at every 250 μm, a single slide containing a 5 μm thick section was prepared. […] For each section, the freehand epithelialised and freehand non-epithelialised distances were measured using image analysis; freehand epithelialised distance as a proportion of the sum of the epithelialised and non-epithelialised distances was calculated to produce a percentage re-epithelialisation value. Average percentage re-epithelialisation values were calculated per wound and per treatment group.
# [3] = 0.1 μg 17β-oestradiol/100 μl of medicament (0.0001% w/v)
structure (smiles),measurement,setting,value
C[C@]12CC[C@@H]3c4ccc(O)cc4CC[C@H]3[C@@H]1CC[C@@H]2O [17β-oestradiol],acceleration of re-epithelialisation (in words),[1]; [3],particularly preferable ability to induce acceleration of re-epithelialisation
same,acceleration of re-epithelialisation (in words),[1]; 0.2 μg 17β-oestradiol/100 μl of medicament (0.0002% w/v),particularly preferable ability to induce acceleration of re-epithelialisation
same,re-epithelialisation,[2]; 0.001 μg 17β-oestradiol/100 μl of medicament (0.000001% w/v),23.02%
same,re-epithelialisation,[2]; 0.01 μg 17β-oestradiol/100 μl of medicament (0.00001% w/v),29.03%
same,re-epithelialisation,[2]; [3],29.95%
same,re-epithelialisation,[2]; 1 μg 17β-oestradiol/100 μl of medicament (0.001% w/v),14.63%
same,re-epithelialisation,[2]; 10 μg 17β-oestradiol/100 μl of medicament (0.01% w/v),10.30%
same,re-epithelialisation,partial thickness wounds; 0.1 μg 17β-oestradiol/100 μl of medicament,98.15%
same,re-epithelialisation,partial thickness wounds; 0.2 μg 17β-oestradiol/100 μl of medicament,98.56%

# Source: patent US20080153794A1, “Medicaments and methods for wound healing” (RENOVO LIMITED, priority 2006, published 2008)
